The structures appear in SMILES notation. pEC50: −log10 of the molar value.

One assay concerns the target T1, KCNQ2/3 channels (Homo sapiens, UniProt O43525+O43526).
T1 construct: expressed in transfected cells; host or cells: CHO-K1
Briefly: Fluorescence assay using a voltage-sensitive dye. The assay is classed as cell-based. Particulars: 10 μmol test substance; CHO-K1 cells expressing KCNQ2/3 channels; agonistic activity; read-out: % Stimulation [10 μmol] Average. As to the method:
Fluorescence Assay Using a Voltage-Sensitive Dye
Human CHO-K1 cells expressing KCNQ2/3 channels are cultivated adherently at 37° C., 5% CO2 and 95% humidity in cell culture bottles (e.g. 80 cm^2 TC flasks, Nunc) with MEM Alpha Medium (1×, liquid, Invitrogen, #22571), 10% foetal calf serum (FCS) (Invitrogen, #10270-106, heat-inactivated) and the necessary selection antibiotics. Before being spread out for the measurements, the cells are washed with a 1×DPBS buffer without Ca^2+/Mg^2+ (e.g. Invitrogen, #14190-094) and detached from the bottom of the culture vessel by means of Accutase (PAA Laboratories, #L11-007) (incubation with Accutase for 15 min at 37° C.). The cell count then present is determined using a CASY™ cell counter (TCC model, Schärfe System) in order subsequently to apply 20,000 cells/well/100 μl of the described nutrient medium to 96-well measuring plates of the Corning™ CellBIND™ type (flat clear-bottom black polystyrene microplates, #3340). Incubation is then carried out for one hour at room temperature, without gassing or adjusting the humidity, followed by incubation for 24 hours at 37° C., 5% CO2 and 95% humidity.
The voltage-sensitive fluorescent dye from the Membrane Potential Assay Kit (Red bulk format part R8123 for FLIPR, Molecular Devices™) is prepared by dissolving the contents of a vessel of Membrane Potential Assay Kit Red Component A in 200 ml of extracellular buffer (ES buffer, 120 mM NaCl, 1 mM KCl, 10 mM HEPES, 2 mM CaCl2, 2 mM MgCl2, 10 mM glucose; pH 7.4). After removal of the nutrient medium, the cells are washed with 200 μl of ES buffer, then covered with a layer of 100 μl of the dye solution prepared above and incubated for 45 min at room temperature with exclusion of light.
The fluorescence measurements are carried out with a BMG Labtech FLUOstar™ or BMG Labtech POLARstar™ instrument (525 nm excitation, 560 nm emission, bottom-read mode). After incubation of the dye, 50 μl of the substances to be tested in the desired concentrations, or 50 μl of ES buffer for control purposes, are introduced into separate cavities of the measuring plate and incubated for 30 min at room temperature whilst being shielded from light. The fluorescence intensity of the dye is then measured for 5 min and the fluorescence value F1 of each well is thus determined at a given, constant time. 15 μl of a […] KCl solution ([…]) are then added to each well. The change in fluorescence is subsequently measured until all relevant measured values have been obtained (mainly 5-30 min). At a given time after KCl application, a fluorescence value F2 is determined, in this case at the time of the fluorescence peak.
For calculation, the fluorescence intensity F2 is compared with the fluorescence intensity F1, and the agonistic activity of the target compound on the potassium channel is determined therefrom. F2 and F1 are calculated as follows:
[formula] In order to determine whether a substance has an agonistic activity,
[formula] for example, can be compared with
[formula] of control cells.
[formula] is determined by adding to the reaction batch only the buffer solution instead of the substance to be tested, determining the value F1K of the fluorescence intensity, adding the potassium ions as described above and measuring a value F2K of the fluorescence intensity. Then F2K and F1K are calculated as follows:
[formula] A substance has an agonistic activity on the potassium channel when
[formula] is greater than
[formula] Independently of the comparison of
[formula] it is also possible to conclude that a target compound has an agonistic activity if an increase in
[formula] is to be observed as the dosage of the target compound increases. Calculations of EC50 and IC50 values are carried out with the aid of Prism 4 software (GraphPad Software™).
In the case of `COc1ccc(C2CCc3nc(C(=O)NCc4cccc(C(F)(F)F)c4)cn3C2)cc1` (stereo not drawn) [Compound 39, 6-(4-Methoxyphenyl)-N-(3-(trifluoromethyl)benzyl)-5,6,7,8-tetrahydroimidazo[1,2-a]pyridine-2-carboxamide], the activation at 10 µM stood at 17.8%.

`COc1ccc(C2CCc3nc(C(=O)N4CCC(Cc5ccccc5)CC4)cn3C2)cc1` (stereo not drawn) [Compound 76, (4-Benzylpiperidin-1-yl)(6-(4-methoxyphenyl)-5,6,7,8-tetrahydroimidazo[1,2-a]pyridin-2-yl)methanone]: the activation at 10 µM came to 65.1%.

As to `O=C(c1cn2c(n1)CCC(c1ccc(F)cc1)C2)N1CCN(c2cccc(C(F)(F)F)c2)CC1` (stereo not drawn) [Compound 47, (6-(4-Fluorophenyl)-5,6,7,8-tetrahydroimidazo[1,2-a]pyridin-2-yl)(4-(3-(trifluoromethyl)phenyl)piperazin-1-yl)methanone], the activation at 10 µM is 63.5%.

In the case of `CC1(C)CC2CC(C)(CN2C(=O)c2cn3c(n2)CCC(c2cccc(F)c2)C3)C1` (stereo not drawn) [Compound 4, (6-(3-Fluorophenyl)-5,6,7,8-tetrahydroimidazo[1,2-a]pyridin-2-yl)(1,3,3-trimethyl-6-azabicyclo[3.2.1]octan-6-yl)methanone], the activation at 10 µM stood at 20.7%.

In the case of `Cc1cc(C2CCc3nc(C(=O)N4CCN(c5ccccc5F)CC4)cn3C2)ccc1F` (stereo not drawn) [Compound 13, (6-(4-Fluoro-3-methylphenyl)-5,6,7,8-tetrahydroimidazo[1,2-a]pyridin-2-yl)(4-(2-fluorophenyl)piperazin-1-yl)methanone], the activation at 10 µM was 18%.

Take `Cc1cc(C2CCc3nc(C(=O)N4CCC(C(c5ccccc5)c5ccccc5)CC4)cn3C2)ccc1F` (stereo not drawn) [Compound 67, (4-Benzhydrylpiperidin-1-yl)(6-(4-fluoro-3-methylphenyl)-5,6,7,8-tetrahydroimidazo[1,2-a]pyridin-2-yl)methanone]: the activation at 10 µM was 33.3%.

In the case of `Cc1cc(C2CCc3nc(C(=O)N4CCC(c5cccc(C(F)(F)F)c5)CC4)cn3C2)ccc1F` (stereo not drawn) [Compound 85, (6-(4-Fluoro-3-methylphenyl)-5,6,7,8-tetrahydroimidazo[1,2-a]pyridin-2-yl)(4-(3-(trifluoromethyl)phenyl)piperidin-1-yl)methanone], the activation at 10 µM was 120%.

Consider `Cc1ccc(C2CCc3nc(C(=O)N4CCN(c5cccc(C(F)(F)F)c5)CC4)cn3C2)cc1` (stereo not drawn) [Compound 74, (6-p-Tolyl-5,6,7,8-tetrahydroimidazo[1,2-a]pyridin-2-yl)(4-(3-(trifluoromethyl)phenyl)piperazin-1-yl)methanone], for which the activation at 10 µM was 51.9%.

`Cc1cc(C2CCc3nc(C(=O)NC(C)CCc4ccccc4)cn3C2)ccc1F` (stereo not drawn) [Compound 72, 6-(4-Fluoro-3-methylphenyl)-N-(4-phenylbutan-2-yl)-5,6,7,8-tetrahydroimidazo[1,2-a]pyridine-2-carboxamide]: the activation at 10 µM worked out at 103%.

With `CCc1ccc(C2CCc3nc(C(=O)N4CCCC4)cn3C2)cc1` (stereo not drawn) [Compound 37, (6-(4-Ethylphenyl)-5,6,7,8-tetrahydroimidazo[1,2-a]pyridin-2-yl)(pyrrolidin-1-yl)methanone], the activation at 10 µM was 15.5%.

Take `O=C(c1cn2c(n1)CCC(c1cccc(C(F)(F)F)c1)C2)N1CCN(c2ccccc2F)CC1` (stereo not drawn) [Compound 32, (4-(2-Fluorophenyl)piperazin-1-yl)(6-(3-(trifluoromethyl)phenyl)-5,6,7,8-tetrahydroimidazo[1,2-a]pyridin-2-yl)methanone]: the activation at 10 µM was found to be 21.2%.

Consider `COc1ccc(F)cc1C1CCc2nc(C(=O)N3CCN(c4cccc(C(F)(F)F)c4)CC3)cn2C1` (stereo not drawn) [Compound 7, (6-(5-Fluoro-2-methoxyphenyl)-5,6,7,8-tetrahydroimidazo[1,2-a]pyridin-2-yl)(4-(3-(trifluoromethyl)phenyl)piperazin-1-yl)methanone], for which the activation at 10 µM amounted to 30%.

With `Cc1ccc(N2CCN(C(=O)c3cn4c(n3)CCC(c3ccc(F)c(C)c3)C4)CC2)cc1` (stereo not drawn) [Compound 64, (6-(4-Fluoro-3-methylphenyl)-5,6,7,8-tetrahydroimidazo[1,2-a]pyridin-2-yl)(4-(4-methylphenyl)piperazin-1-yl)methanone], the activation at 10 µM was 46.7%.

Consider `Cc1ccccc1C1CCc2nc(C(=O)N3CCCC3)cn2C1` (stereo not drawn) [Compound 34, Pyrrolidin-1-yl(6-o-tolyl-5,6,7,8-tetrahydroimidazo[1,2-a]pyridin-2-yl)methanone], for which the activation at 10 µM is 32.2%.

Consider `Cc1cc(C2CCc3nc(C(=O)NCC4CCCCC4)cn3C2)ccc1F` (stereo not drawn) [Compound 68, N-(Cyclohexylmethyl)-6-(4-fluoro-3-methylphenyl)-5,6,7,8-tetrahydroimidazo[1,2-a]pyridine-2-carboxamide], for which the activation at 10 µM was 25.1%.

As to `O=C(c1cn2c(n1)CCC(c1cccc(C(F)(F)F)c1)C2)N1CCCC1` (stereo not drawn) [Compound 31, Pyrrolidin-1-yl(6-(3-(trifluoromethyl)phenyl)-5,6,7,8-tetrahydroimidazo[1,2-a]pyridin-2-yl)methanone], the activation at 10 µM is 17.6%.

Turning to `COc1c(C)cc(C2CCc3nc(C(=O)NCc4ccccc4)cn3C2)cc1C` (stereo not drawn) [Compound 5, N-Benzyl-6-(4-methoxy-3,5-dimethylphenyl)-5,6,7,8-tetrahydroimidazo[1,2-a]pyridine-2-carboxamide], the activation at 10 µM came out at 15.5%.

Staying with this assay, now noted: CHO-K1 cells expressing KCNQ2/3 channels; agonistic activity.
What is called pEC50 is the negative decadic logarithm of the EC50, by convention in mol/L. `COc1c(C)cc(C2CCc3nc(C(=O)N4CC5(C)CC4CC(C)(C)C5)cn3C2)cc1C` (stereo not drawn) [Compound 56, (6-(4-Methoxy-3,5-dimethylphenyl)-5,6,7,8-tetrahydroimidazo[1,2-a]pyridin-2-yl)(1,3,3-trimethyl-6-azabicyclo[3.2.1]octan-6-yl)methanone] had a pEC50 of 4.95.

With `COc1ccc(CCNC(=O)c2cn3c(n2)CCC(c2ccc(Oc4ccccc4)cc2)C3)cc1OC` (stereo not drawn) [Compound 27, N-(3,4-Dimethoxyphenethyl)-6-(4-phenoxyphenyl)-5,6,7,8-tetrahydroimidazo[1,2-a]pyridine-2-carboxamide], the pEC50 is 5.20.

Take `CCOC(=O)C1CCN(C(=O)c2cn3c(n2)CCC(c2ccc(Oc4ccccc4)cc2)C3)CC1` (stereo not drawn) [Compound 20, Ethyl 1-(6-(4-phenoxyphenyl)-5,6,7,8-tetrahydroimidazo[1,2-a]pyridine-2-carbonyl)piperidine-4-carboxylate]: the pEC50 was 4.94.

As to `Cc1cc(C2CCc3nc(C(=O)N4CCN(c5cccc(F)c5)CC4)cn3C2)ccc1F` (stereo not drawn) [Compound 83, (6-(4-Fluoro-3-methylphenyl)-5,6,7,8-tetrahydroimidazo[1,2-a]pyridin-2-yl)(4-(3-fluorophenyl)piperazin-1-yl)methanone], the pEC50 is 5.19.

The molecule `Cc1cc(C2CCc3nc(C(=O)NC(C)CCc4cccc(C(F)(F)F)c4)cn3C2)ccc1F` (stereo not drawn) [Compound 86, 6-(4-Fluoro-3-methylphenyl)-N-(4-(3-(trifluoromethyl)phenyl)butan-2-yl)-5,6,7,8-tetrahydroimidazo[1,2-a]pyridine-2-carboxamide] had a negative logarithm of the EC50 (pEC50) of 5.92.

`COc1c(C)cc(C2CCc3nc(C(=O)N4CCN(c5cccc(C(F)(F)F)c5)CC4)cn3C2)cc1C` (stereo not drawn) [Compound 54, (6-(4-Methoxy-3,5-dimethylphenyl)-5,6,7,8-tetrahydroimidazo[1,2-a]pyridin-2-yl)(4-(3-(trifluoromethyl)phenyl)piperazin-1-yl)methanone] gave a pEC50 of 5.61.

In turn, `CC(=O)N1CCN(C(=O)c2cn3c(n2)CCC(c2ccc(Oc4ccccc4)cc2)C3)CC1` (stereo not drawn) [Compound 23, 1-(4-(6-(4-Phenoxyphenyl)-5,6,7,8-tetrahydroimidazo[1,2-a]pyridine-2-carbonyl)piperazin-1-yl)ethanone] gave a pEC50 of 5.24.

Source of the values: patent US8288424B2, “Substituted tetrahydroimidazopyridine compounds and the use thereof in the treatment of pain and other conditions” (Gruenenthal GmbH, priority 2008, dated 2012).
